Where two headings read alike, the source gives them in different places.

The target of this assay is T1, SMYD2 (Homo sapiens, UniProt Q9NRG4).
T1 construct: Full length SMYD2 (NP_064582.2) was cloned; His6 (N, cleaved yes); FLAG (N); made in house; host or cells: Sf9 insect cells
The assay can be described thus: SMYD2 biochemical assay (3H-SAM, biotinylated peptide substrate, Flashplate). As to conditions: average of n = 1 to n = 50, read-out: SMYD2 Biochem IC50. The text has this:
S-adenosylmethionine (SAM), S-adenosylhomocysteine (SAH), bicine, Tween20, dimethylsulfoxide (DMSO), bovine skin gelatin (BSG), and Tris(2-carboxyethyl)phosphine hydrochloride (TCEP) were purchased from Sigma-Aldrich at the highest level of purity possible. ^3H-SAM was purchase from American Radiolabeled Chemicals with a specific activity of 80 Ci/mmol. 384-well streptavidin Flashplates were purchased from PerkinElmer.
Peptide was synthesized with a N-terminal linker-affinity tag motif and a C-terminal amide cap by 21st Century Biochemicals. The peptide was high high-performance liquid chromatography (HPLC) purified to greater than 95% purity and confirmed by liquid chromatography mass spectrometry (LC-MS). The sequence was […](K-Biot)-amide. (SEQ ID NO: 3)
Full length SMYD2 (NP_064582.2) was cloned into a pFastbac-Htb-lic vector with an N-terminal His6 tag and FLAG tag, preceded by a TEV protease cleavage site. The protein was expressed in Sf9 insect cells. Cells were resuspended in lysis buffer (25 mM HEPES-NaOH, pH 7.5, 200 mM NaCl, 5% glycerol, and 5 mM […] and lysed by sonication. The protein was purified by Ni-NTA (Qiagen), followed by TEV cleavage to remove the His6 tag, subtractive Ni-NTA (Qiagen), and gel filtration chromatography using an S200 column (GE Healthcare). Purified protein was stored in 20 mM Tris-HCl, pH 8.0, 100 mM NaCl, and 1 mM TCEP.
General Procedure for SMYD2 Enzyme Assays on Peptide Substrates
The assays were all performed in a buffer consisting of 20 mM Bicine (pH=7.6), 1 mM TCEP, 0.005% Bovine Skin Gelatin, and 0.002% Tween20, prepared on the day of use. Compounds in 100% DMSO (1 ul) were spotted into a polypropylene 384-well V-bottom plates (Greiner) using a Platemate Plus outfitted with a 384-channel head (Thermo Scientific). DMSO (1 ul) was added to Columns 11, 12, 23, 24, rows A-H for the maximum signal control and 1 ul of SAH, a known product and inhibitor of SMYD2, was added to columns 11, 12, 23, 24, rows I-P for the minimum signal control. A cocktail (40 ul) containing the SMYD2 enzyme was added by Multidrop Combi (Thermo-Fisher). The compounds were allowed to incubate with SMYD2 for 30 min at room temperature, then a cocktail (10 ul) containing ^3H-SAM and peptide was added to initiate the reaction (final volume=51 ul). The final concentrations of the components were as follows: SMYD2 was 1.5 nM, ^3H-SAM was 10 nM, and peptide was 60 nM, SAH in the minimum signal control wells was 1000 uM, and the DMSO concentration was 2%. The assays were stopped by the addition of non-radioactive SAM (10 ul) to a final concentration of 600 uM, which dilutes the ^3H-SAM to a level where its incorporation into the peptide substrate is no longer detectable. 50 ul of the reaction in the 384-well polypropylene plate was then transferred to a 384-well Flashplate and the biotinylated peptides were allowed to bind to the streptavidin surface for at least 1 hour before being washed three times with 0.1% Tween20 in a Biotek ELx405 plate washer. The plates were then read in a PerkinElmer TopCount plate reader to measure the quantity of ^3H-labeled peptide bound to the Flashplate surface, measured as disintegrations per minute (dpm) or alternatively, referred to as counts per minute (cpm).
Where dpm=disintegrations per minute, cmpd=signal in assay well, and min and max are the respective minimum and maximum signal controls.
Where top and bottom are the normally allowed to float, but may be fixed at 100 or 0 respectively in a 3-parameter fit. The Hill Coefficient normally allowed to float but may also be fixed at 1 in a 3-parameter fit. I is the compound concentration.
SMYD2 biochemical assay data for representative Compounds of the Disclosure are presented in Tables 1, 3, and 4 in the column titled “SMYD2 Bicohem IC50 (μM).”

T1 sequence (Q9NRG4 whole entry): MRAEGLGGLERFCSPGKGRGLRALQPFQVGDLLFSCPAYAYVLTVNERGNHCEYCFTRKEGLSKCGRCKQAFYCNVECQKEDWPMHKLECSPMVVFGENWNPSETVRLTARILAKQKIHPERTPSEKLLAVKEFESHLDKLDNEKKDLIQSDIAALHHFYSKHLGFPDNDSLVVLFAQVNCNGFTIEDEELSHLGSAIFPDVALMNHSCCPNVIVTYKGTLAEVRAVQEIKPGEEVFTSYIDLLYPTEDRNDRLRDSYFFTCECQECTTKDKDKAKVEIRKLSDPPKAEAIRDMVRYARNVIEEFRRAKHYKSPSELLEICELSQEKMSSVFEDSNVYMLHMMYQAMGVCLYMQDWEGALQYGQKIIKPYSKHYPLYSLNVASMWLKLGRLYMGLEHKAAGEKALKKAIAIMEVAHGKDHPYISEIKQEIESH

Consider `C[C@H]1CN(C2CC2)C[C@@H]1NC(=O)c1ccc2c(c1)CC(=O)N2` (racemic) [Cpd. No. 5, (±)-trans-N-(1-cyclopropyl-4-methylpyrrolidin-3-yl)-2-oxoindoline-5-carboxamide], for which the IC50 (Table 1) is over 50 µM.
Turning to `C[C@H]1CN(C2CC2)C[C@H]1NC(=O)c1ccc2c(c1)CC(=O)N2` (racemic) [Cpd. No. 6, (±)-cis-N-(1-cyclopropyl-4-methylpyrrolidin-3-yl)-2-oxoindoline-5-carboxamide], the IC50 (Table 1) was over 50 µM.
Take `C[C@H]1CN(C2CC2)C[C@@H]1NC(=O)c1ccc2c(c1)OC(F)(F)O2` (racemic) [compound 1, (±)-trans-N-(1-cyclopropyl-4-methylpyrrolidin-3-yl)-2,2-difluorobenzo[d][1,3]dioxole-5-carboxamide]: for the setting “Table 1”, the IC50 is over 50 µM.
In the case of `C[C@@H]1CN(C2CC2)C[C@@H]1NC(=O)c1ccc2c(c1)OC(F)(F)O2` (racemic) [compound 2, (±)-cis-N-(1-cyclopropyl-4-methylpyrrolidin-3-yl)-2,2-difluorobenzo[d][1,3]dioxole-5-carboxamide], the IC50 (Table 1) is over 50 µM.
Take `C[C@H]1CN(C2CC2)C[C@@H]1NC(=O)Cc1ccc2c(c1)NC(=O)CO2` (racemic) [compound 3, (±)-trans-N-(1-cyclopropyl-4-methylpyrrolidin-3-yl)-2-(3-oxo-3,4-dihydro-2H-benzo[b][1,4]oxazin-6-yl)acetamide]: the IC50 (Table 1) was over 50 µM.
On to `C[C@H]1CN(C2CC2)C[C@H]1NC(=O)Cc1ccc2c(c1)NC(=O)CO2` (racemic) [compound 4, (±)-cis-N-(1-cyclopropyl-4-methylpyrrolidin-3-yl)-2-(3-oxo-3,4-dihydro-2H-benzo[b][1,4]oxazin-6-yl)acetamide], for which, under “Table 1”, the IC50 is over 50 µM.
`CC1Oc2ccc(C(=O)N[C@H]3CN(C4CC4)C[C@@H]3C)cc2NC1=O` (mixture of isomers) [compound 7, (±)-trans-N-(1-cyclopropyl-4-methylpyrrolidin-3-yl)-2-methyl-3-oxo-3,4-dihydro-2H-benzo[b][1,4]oxazine-6-carboxamide]: where the note is “Table 1”, the IC50 was over 50 µM.
Turning to `CC1Oc2ccc(C(=O)N[C@@H]3CN(C4CC4)C[C@@H]3C)cc2NC1=O` (mixture of isomers) [compound 8, (±)-cis-N-(1-cyclopropyl-4-methylpyrrolidin-3-yl)-2-methyl-3-oxo-3,4-dihydro-2H-benzo[b][1,4]oxazine-6-carboxamide], the IC50 (Table 1) is over 50 µM.
Consider `Cc1cc(C(=O)N[C@H]2CN(C3CC3)C[C@@H]2C)n(Cc2ccccc2)n1` (racemic) [compound 9, (±)-trans-1-benzyl-N-(1-cyclopropyl-4-methylpyrrolidin-3-yl)-3-methyl-1H-pyrazole-5-carboxamide], for which the IC50 (Table 1) is over 50 µM.
With `Cc1cc(C(=O)N[C@@H]2CN(C3CC3)C[C@@H]2C)n(Cc2ccccc2)n1` (racemic) [compound 10, (±)-cis-1-benzyl-N-(1-cyclopropyl-4-methylpyrrolidin-3-yl)-3-methyl-1H-pyrazole-5-carboxamide], the IC50 (Table 1) was over 50 µM.
On to `CCc1cc(C(=O)N[C@H]2CN(C3CC3)C[C@@H]2C)ns1` (racemic) [compound 11, (±)-trans-N-(1-cyclopropyl-4-methylpyrrolidin-3-yl)-5-ethylisothiazole-3-carboxamide], for which, for the setting “Table 1”, the half-inhibitory concentration (IC50) was over 50 µM.
For `CCc1cc(C(=O)N[C@@H]2CN(C3CC3)C[C@@H]2C)ns1` (racemic) [compound 12, (±)-cis-N-(1-cyclopropyl-4-methylpyrrolidin-3-yl)-5-ethylisothiazole-3-carboxamide], the IC50 (Table 1) was determined as 7.1 µM.
The same measure, in the same setting: with `C[C@H]1CN(C2CC2)C[C@@H]1NC(=O)c1ccc2[nH]c(=O)oc2c1` (racemic) [compound 13, (±)-trans-N-(1-cyclopropyl-4-methylpyrrolidin-3-yl)-2-oxo-2,3-dihydrobenzo[d]oxazole-6-carboxamide] the figure was over 50 µM.
As for `C[C@H]1CN(C2CC2)C[C@H]1NC(=O)c1ccc2[nH]c(=O)oc2c1` (racemic) [compound 14, (±)-cis-N-(1-cyclopropyl-4-methylpyrrolidin-3-yl)-2-oxo-2,3-dihydrobenzo[d]oxazole-6-carboxamide], the IC50 (Table 1) was over 50 µM.
On the same count and under the same terms, with `C[C@@H]1CN(C2CC2)C[C@H]1NC(=O)c1cc(O)nn1C` (racemic) [compound 15, (±)-trans-H-(1-cyclopropyl-4-methylpyrrolidin-3-yl)-3-hydroxy-1-methyl-1H-pyrazole-5-carboxamide] the figure was over 50 µM; with `C[C@H]1CN(C2CC2)C[C@H]1NC(=O)c1cc(O)nn1C` (racemic) [compound 16, (±)-cis-N-(1-cyclopropyl-4-methylpyrrolidin-3-yl)-3-hydroxy-1-methyl-1H-pyrazole-5-carboxamide], over 50 µM; with `C[C@H]1CN(C2CC2)C[C@@H]1NC(=O)c1cn(C2CC2)nn1` (racemic) [compound 18, (±)-trans-1-cyclopropyl-N-(1-cyclopropyl-4-methylpyrrolidin-3-yl)-1H-1,2,3-triazole-4-carboxamide], 13.2 µM.
Same read-out and setting: with `C[C@H]1CN(C2CC2)C[C@H]1NC(=O)c1cn(C2CC2)nn1` (racemic) [compound 19, (±)-cis-1-cyclopropyl-N-(1-cyclopropyl-4-methylpyrrolidin-3-yl)-1H-1,2,3-triazole-4-carboxamide] the figure was 1.4 µM; with `C[C@H]1CN(C2CC2)C[C@@H]1NC(=O)c1ccc(N2CCCC2)cc1` (racemic) [compound 20, (±)-trans-N-(1-cyclopropyl-4-methylpyrrolidin-3-yl)-4-(pyrrolidin-1-yl)benzamide], over 50 µM.
`C[C@H]1CN(C2CC2)C[C@H]1NC(=O)c1ccc(N2CCCC2)cc1` (racemic) [compound 21, (±)-cis-N-(1-cyclopropyl-4-methylpyrrolidin-3-yl)-4-(pyrrolidin-1-yl)benzamide]: under “Table 1”, the IC50 was over 50 µM.
As to `C[C@H]1CN(C2CC2)C[C@@H]1NC(=O)c1ccc2[nH]c(=O)[nH]c2c1` (racemic) [compound 22, (±)-trans-N-(1-cyclopropyl-4-methylpyrrolidin-3-yl)-2-oxo-2,3-dihydro-1H-benzo[d]imidazole-5-carboxamide], the IC50 (Table 1) was over 50 µM.
As for `C[C@H]1CN(C2CC2)C[C@H]1NC(=O)c1ccc2[nH]c(=O)[nH]c2c1` (racemic) [compound 23, (±)-cis-N-(1-cyclopropyl-4-methylpyrrolidin-3-yl)-2-oxo-2,3-dihydro-1H-benzo[d]imidazole-5-carboxamide], the IC50 (Table 1) was over 50 µM.
For the molecule `CC(C)N1C[C@@H](C)[C@H](NC(=O)c2cn(C(C)C)nn2)C1` (racemic) [compound 24, (±)-trans-N-[4-methyl-1-(propan-2-yl)pyrrolidin-3-yl]-1-(propan-2-yl)-1H-1,2,3-triazole-4-carboxamide], where the note is “Table 3”, the IC50 was over 50 µM.
Take `CC(C)N1C[C@H](C)[C@H](NC(=O)c2cn(C(C)C)nn2)C1` (racemic) [compound 25, (±)-cis-N-[4-methyl-1-(propan-2-yl)pyrrolidin-3-yl]-1-(propan-2-yl)-1H-1,2,3-triazole-4-carboxamide]: the IC50 (Table 3) is 6.34 µM.
On to `CC(C)N1C[C@@H](C)[C@H](NC(=O)c2cn(C3CC3)nn2)C1` (racemic) [compound 26, (±)-trans-1-cyclopropyl-N-[4-methyl-1-(propan-2-yl)pyrrolidin-3-yl]-1H-1,2,3-triazole-4-carboxamide], for which, under “Table 3”, the IC50 turned out to be 19.3 µM.

As usually defined, the IC50 is the midpoint of a concentration-inhibition curve.

The record behind these values is patent US20170247326A1, “Substituted Pyrrolidine Carboxamide Compounds” (EPIZYME, INC., priority 2014, published 2017).
